Assay results published in ChEMBL document CHEMBL1159365, “Sesquiterpenoids from Artemisia gilvescens and an anti-MRSA compound” (J Nat Prod, 2003).
In brackets after ≈: the same amount, converted by molar mass.

The molecules below were run on HCT-116 (assay: Cytotoxicity against human HCT116 cells by MTT assay).
Format: functional, cell-based

SMILES | IC50
CC1=CC(=O)c2c(C)cc3oc(=O)c(C)c-3cc21 | 16 µM
C=C1C(=O)O[C@H]([C@H]2C(=O)C=C[C@@]2(C)O)[C@H]1CCC(C)=O | 6 µM
C=C1C(=O)O[C@H]2[C@H]1CC[C@@](C)(O)[C@]13O[C@H]1[C@H]1O[C@@]1(C)[C@H]23 [ARTECANIN] | 14 µM
C=C1C(=O)O[C@H]([C@@H]2C(=O)C=C[C@@]2(C)O)[C@H]1CCC(C)=O [SECOTANAPARTHOLIDE A] | 6 µM
C=C1C(=O)O[C@H]([C@@H]2C(=O)C=C[C@]2(C)O)[C@H]1CCC(C)=O [SECOTANAPARTHOLIDE B] | 3.3 µM
C=C1C(=O)O[C@H](C2=C(C)[C@@H](O)CC2=O)[C@H]1CCC(C)=O [ISOSECOTANAPARTHOLIDE] | 13 µM

What follows are molecules tested on Staphylococcus aureus (assay: Antimicrobial activity against methicillin-resistant Staphylococcus aureus after 20 hrs).
Format: functional

SMILES | MIC
CC1=CC(=O)c2c(C)cc3oc(=O)c(C)c-3cc21 | 1.95 µg/mL (≈ 8.12 µM)
